pIC50: −log10 of the molar value.
Molecular target: USP14 (Homo sapiens, UniProt P54578)
Assay: USP14 Inhibition Assay
Assay type: biochemical
Settings: average value from a minimum of two experimental determinations, read-out: IC50 Category
From the text: The activity of the compound described herein to inhibit USP14 can be measured using previously described methodology [B. H. Lee et al. Nature 2010, 467 (9), 179, the contents of which are expressly incorporated by reference herein].
Example 6: USP14 Inhibition Assay

Compound | pIC50
Cc1cc(C(=O)CC2CCNCC2)c(C)n1-c1ccc(Cl)cc1 [Compound 39, 1-(1-(4-Chlorophenyl)-2,5-dimethyl-1H-pyrrol-3-yl)-2-(piperidin-4-yl)ethanone] | < 5.30
Cc1cc(C(=O)CN2CCCCC2)c(C)n1-c1ccc(Br)c(Cl)c1 [Compound 57, 1-(1-(4-Bromo-3-chloropheny1)-2,5-dimethyl-1H-pyrrol-3-yl)-2-(piperidin-1-yl)ethanone] | 5.30 to 6.30
Cc1cc(C(=O)CN2CCC(O)CC2)c(C)n1-c1ccc(S(C)(=O)=O)cc1 [Compound 13, 1-(2,5-Dimethyl-1-(4-(methylsulfonyl)phenyl)-1H-pyrrol-3-yl)-2-(4-hydroxypiperidin-1-yl)ethanone] | < 5.30
Cc1cc(C(=O)CN2CCCCC2)c(C)n1C1CCCCC1 [Compound 65, 1-(1-Cyclohexyl-2,5-dimethyl-1H-pyrrol-3-yl)-2-(piperidin-1-yl)ethanone] | 5.30 to 6.30
Cc1cc(C(=O)CNCCOCc2ccccc2)c(C)n1-c1ccc(C#N)cc1 [Compound 42, 4-(3-(2-((2-(Benzyloxy)ethyl)amino)acetyl)-2,5-dimethyl-1H-pyrrol-1-yl)benzonitrile] | < 5.30
Cc1cc(C(=O)CNCC2COC(C)(C)O2)c(C)n1-c1ccc(Cl)cc1 (stereo not shown) [Compound 40, 1-(1-(4-Chlorophenyl)-2,5-dimethyl-1H-pyrrol-3-yl)-2-(((2,2-dimethyl-1,3-dioxolan-4-yl)methyl)amino)ethanone] | < 5.30
Cc1cc(C(=O)CN2CCCCC2)c(C)n1[C@H]1CC[C@@H](C(=O)OCc2ccccc2)CC1 [Compound 45, cis-Benzyl 4-(2,5-dimethyl-3-(2-(piperidin-1-yl)acetyl)-1H-pyrrol-1-yl)cyclohexanecarboxylate] | < 5.30
CCCNC(=O)OC1CCCN(CC(=O)c2cc(C)n(-c3ccc(Cl)cc3)c2C)C1 (stereo not shown) [Compound 54, 1-(2-(1-(4-Chlorophenyl)-2,5-dimethyl-1H-pyrrol-3-yl)-2-oxoethyl)piperidin-3-yl propylcarbamate] | 5.30 to 6.30
Cc1cc(C(=O)CN2CCC(O)CC2)c(C)n1-c1ccc(OC(F)(F)F)cc1 [Compound 62, 1-(2,5-dimethyl-1-(4-(trifluoromethoxy)phenyl)-1H-pyrrol-3-yl)-2-(4-hydroxypiperidin-1-yl)ethanone] | 5.30 to 6.30
Cc1cc(C(=O)CNCCOCc2ccccc2)c(C)n1-c1ccc(Cl)cc1 [Compound 41, 2-((2-(Benzyloxy)ethyl)amino)-1-(1-(4-chlorophenyl)-2,5-dimethyl-1H-pyrrol-3-yl)ethanone] | < 5.30
Cc1cc(Cl)cc(C)c1-n1cccc1C(=O)CN1CCCCC1 [Compound 27, 1-(1-(4-Chloro-2,6-dimethylphenyl)-1H-pyrrol-2-yl)-2-(piperidin-1-yl)ethanone] | < 5.30
Cc1cc(C(=O)CNC2CCC(C)CC2)c(C)n1-c1ccc(Cl)cc1 (stereo not shown) [Compound 66, 1-(1-(4-Chlorophenyl)-2,5-dimethyl-1H-pyrrol-3-yl)-2-((4-methylcyclohexyl)amino)ethanone] | 5.30 to 6.30
Cc1cc(C(=O)CC2CCCNC2)c(C)n1-c1ccc(Cl)cc1 (stereo not shown) [Compound 38, 1-(1-(4-Chlorophenyl)-2,5-dimethyl-1H-pyrrol-3-yl)-2-(piperidin-3-yl)ethanone] | < 5.30
COc1cc(NS(=O)(=O)c2ccc(-n3c(C)cc(C(=O)CN4CCCCC4)c3C)cc2)nc(OC)n1 [Compound 1, N-(2,6-Dimethoxypyrimidin-4-yl)-4-(2,5-dimethyl-3-(2-(piperidin-1-yl)acetyl)-1H-pyrrol-1-yl)benzenesulfonamide] | < 5.30
Cc1cc(C(=O)CN2CCCCC2)c(C)n1-c1cc(Cl)cc(Cl)c1 [Compound 17, 1-(1-(3,5-Dichlorophenyl)-2,5-dimethyl-1H-pyrrol-3-yl)-2-(piperidin-1-yl)ethanone] | < 5.30
Cc1cc(C(=O)CN2CCCCC2)c(C)n1-c1ccc(S(C)(=O)=O)cc1 [Compound 12, 1-(2,5-Dimethyl-1-(4-(methylsulfonyl)phenyl)-1H-pyrrol-3-yl)-2-(piperidin-1-yl)ethanone] | < 5.30
COc1ccc(-n2c(C)cc(C(=O)CN3CCC(O)CC3)c2C)cc1F [Compound 64, 1-(1-(3-Fluoro-4-methoxyphenyl)-2,5-dimethyl-1H-pyrrol-3-yl)-2-(4-hydroxypiperidin-1-yl)ethanone] | 5.30 to 6.30
Cc1cc(C(=O)CN2CCC(N(C)C)C2)c(C)n1-c1ccc(Cl)cc1 (stereo not shown) [Compound 55, 1-(1-(4-Chlorophenyl)-2,5-dimethyl-1H-pyrrol-3-yl)-2-(3-(dimethylamino)pyrrolidin-1-yl)ethanone] | 5.30 to 6.30
Cc1cc(C(=O)CNC2CC2)c(C)n1-c1ccc(Cl)cc1 [Compound 48, 1-(1-(4-Chlorophenyl)-2,5-dimethyl-1H-pyrrol-3-yl)-2-(cyclopropylamino)ethanone] | 5.30 to 6.30
Cc1cc(C(=O)CN2CCC(C(=O)O)CC2)c(C)n1-c1ccc(Cl)cc1 [Compound 25, 1-(2-(1-(4-Chlorophenyl)-2,5-dimethyl-1H-pyrrol-3-yl)-2-oxoethyl)piperidine-4-carboxylic acid] | < 5.30

The remaining lines, values ahead:

pIC50 | Compound
< 5.30 | Cc1cc(C(=O)CN2CCC(O)CC2)c(C)n1-c1ccc(C(=O)O)cc1 [Compound 113, 4-(3-(2-(4-Hydroxypiperidin-1-yl)acetyl)-2,5-dimethyl-1H-pyrrol-1-yl)benzoic acid]
5.30 to 6.30 | Cc1cc(C(=O)CNCC(O)CO)c(C)n1-c1ccc(C#N)cc1 (stereo not shown) [Compound 134, 4-(3-(2-((2,3-Dihydroxypropyl)amino)acetyl)-2,5-dimethyl-1H-pyrrol-1-yl)benzonitrile]
> 6.30 | Cc1cc(C(=O)CN2CCCCC2)c(C)n1-c1ccc(C#N)cc1 [Compound 81, 4-(2,5-Dimethyl-3-(2-(piperidin-1-yl)acetyl)-1H-pyrrol-1-yl)benzonitrile]
5.30 to 6.30 | Cc1cc(C(=O)CC2CCCCN2C)c(C)n1-c1ccc(Cl)cc1 (stereo not shown) [Compound 72, 1-(1-(4-Chlorophenyl)-2,5-dimethyl-1H-pyrrol-3-yl)-2-(1-methylpiperidin-2-yl)ethanone]
> 6.30 | Cc1cc(C(=O)CN2CCCC(CN)C2)c(C)n1-c1ccc(C#N)cc1 (stereo not shown) [Compound 159, 4-(3-(2-(3-(Aminomethyl)piperidin-1-yl)acetyl)-2,5-dimethyl-1H-pyrrol-1-yl)benzonitrile]
> 6.30 | Cc1c(C(=O)CN2CCCCC2)cc(C2CC2)n1-c1ccc(Cl)cc1 [Compound 90, 1-(1-(4-Chloropheny1)-5-cyclopropyl-2-methyl-1H-pyrrol-3-yl)-2-(piperidin-1-yl)ethanone]
5.30 to 6.30 | Cc1cc(C(=O)CN2CCCCC2)c(C)n1-c1ccc(C(F)(F)F)cc1 [Compound 68, 1-(2,5-Dimethyl-1-(4-(trifluoromethyl)phenyl)-1H-pyrrol-3-yl)-2-(piperidin-1-yl)ethanone]
5.30 to 6.30 | Cc1cc(C(=O)CN2CCCCC2)c(C)n1[C@H]1CC[C@H](C#N)CC1 [Compound 143, trans-4-(2,5-Dimethyl-3-(2-(piperidin-1-yl)acetyl)-1H-pyrrol-1-yl)cyclohexane-1-carbonitrile]
> 6.30 | CCNC(=O)COC1CCN(CC(=O)c2cc(C)n(-c3ccc(Cl)cc3)c2C)CC1 [Compound 79, 2-((1-(2-(1-(4-Chlorophenyl)-2,5-dimethyl-1H-pyrrol-3-yl)-2-oxoethyl)piperidin-4-yl)oxy)-N-ethylacetamide]
5.30 to 6.30 | Cc1cc(C(=O)CN2CCCCC2)c(C)n1C1CCC(F)(F)CC1 [Compound 76, 1-(1-(4,4-Difluorocyclohexyl)-2,5-dimethyl-1H-pyrrol-3-yl)-2-(piperidin-1-yl)ethanone]
< 5.30 | Cc1cc(C(=O)CN2CCCCC2)c(C)n1[C@H]1CC[C@H](C(N)=O)CC1 [Compound 122, trans-4-(2,5-Dimethyl-3-(2-(piperidin-1-yl)acetyl)-1H-pyrrol-1-yl)cyclohexane-1-carboxamide]
5.30 to 6.30 | Cc1cc(C(=O)CN2CCC(CNC(=O)OC(C)(C)C)CC2)c(C)n1-c1ccc(C#N)cc1 [Compound 135, tert-butyl ((1-(2-(1-(4-Cyanophenyl)-2,5-dimethyl-1H-pyrrol-3-yl)-2-oxoethyl)piperidin-4-yl)methyl)carbamate]
> 6.30 | Cc1cc(C(=O)CN2CCCC2)c(C)n1-c1ccc(C#N)cc1 [Compound 85, 4-(2,5-Dimethyl-3-(2-(pyrrolidin-1-yl)acetyl)-1H-pyrrol-1-yl)benzonitrile]
> 6.30 | Cc1cc(C(=O)CN2CCCC2)n(C)c1-c1ccc(Cl)cc1 [Compound 92, 1-(5-(4-Chlorophenyl)-1,4-dimethyl-1H-pyrrol-2-yl)-2-(pyrrolidin-1-yl)ethanone]
5.30 to 6.30 | Cc1cc(C(=O)CNCCO)c(C)n1-c1ccc(C#N)cc1 [Compound 77, 4-(3-(2-((2-Hydroxyethyl)amino)acetyl)-2,5-dimethyl-1H-pyrrol-1-yl)benzonitrile]
> 6.30 | Cc1cc(C(=O)C[n+]2ccccc2)c(C)n1-c1ccc(Cl)cc1 [Compound 99, 1-(2-(1-(4-Chlorophenyl)-2,5-dimethyl-1H-pyrrol-3-yl)-2-oxoethyl)pyridin-1-ium Chloride]
5.30 to 6.30 | Cc1cc(C(=O)CN(C)CCCCC(N)C(=O)O)c(C)n1-c1ccc(C#N)cc1 (stereo not shown) [Compound 138, 2-Amino-6-((2-(1-(4-cyanophenyl)-2,5-dimethyl-1H-pyrrol-3-yl)-2-oxoethyl)(methyl)amino)hexa-noic acid]
< 5.30 | Cc1cc(C(=O)CN2CCC(O)CC2)c(C)n1-c1ccc(C(=O)OCc2ccccc2)cc1 [Compound 111, trans-Benzyl 4-(3-(2-(4-hydroxypiperidin-1-yl)acetyl)-2,5-dimethyl-1H-pyrrol-1-yl)benzoate]
5.30 to 6.30 | Cc1cc(C(=O)CNC2CCCCCC2)c(C)n1-c1ccc(Cl)cc1 [Compound 67, 1-(1-(4-Chlorophenyl)-2,5-dimethyl-1H-pyrrol-3-yl)-2-(cycloheptylamino)ethanone]
< 5.30 | CCc1ccc(C(=O)CN2CCCCC2)n1-c1ccc(C#N)cc1 [Compound 112, 4-(2-Ethyl-5-(2-(piperidin-1-yl)acetyl)-1H-pyrrol-1-yl)benzonitrile]
